# “And” between values parts separate entries of the source, which are not always exact repeats. Identical values can stand only once. Like-named read-outs stand apart in the source and are kept apart here. Marks after values point to notes of the source that are not given here.
# Experiments:
# avidin (AV) [1] = biological target: T1, avidin (AV) (Gallus gallus, UniProt P02701); conditions: AV-B7, cited from earlier work
# T1 construct: purchased Calbiochem (La Jolla, CA)
# avidin (AV) [2] = biological target: T1, avidin (AV); conditions: cited from earlier work; for ΔG° ^ǂ, Backward / ΔS° ^ǂ, Backward: calculated from the plotted data; for Ea^Backward: ref 18
# streptavidin (SAV) [3] = biological target: T2, streptavidin (SAV) (Streptomyces avidinii, UniProt P22629); assay: Literature kinetics, affinity and dissociation (backward) activation parameters; format: binding; conditions: SAV-B7, average of the reported values
# T2 construct: purchased Sigma Aldrich (St. Louis, MO)
# streptavidin (SAV) [4] = biological target: T2, streptavidin (SAV); conditions: cited from earlier work
# avidin (AV) [5] = biological target: T1, avidin (AV); assay: Literature calorimetry reaction thermodynamics; format: binding; conditions: AV-B7, average of the reported values
# streptavidin (SAV) [6] = biological target: T2, streptavidin (SAV); assay: Absorbance and fluorescence emission spectra, SAV complex; format: physicochemical
# Description: The lifetimes (τ), steady state anisotropies (rss), time-resolved anisotropies (rt) and quantum yields (QY) of the complexes (at 20 ± 0.1°C and pH 8) were collected with a dye-labeled B7 probe concentration of 20–40 nM and 1040–2080 nM of either protein (AV or SAV) to ensure that only one binding site in the tetramer was filled with a ligand (AB1 filling model).
# The QY values were obtained by using a reference fluorophore of known quantum yield and were calculated according to Parker and Rees, where the reference dye was fluorescein in 0.1N sodium hydroxide solution [46]. The emission fluorescence scans were collected from 480 nm to 700 nm with the excitation light set at 460 nm provided by the xenon arc lamp described above. These measurements were made on the AB1 complexes at high protein concentration.
# Supplementary file pone.0204194.s001.docx: S1 Fig Absorbance spectra of dye-labeled B7 probes and respective complexes with AV and SAV. […] The spectra are normalized to the calculated molar absorptivies. The distortion of the SAV-BFl absorbance spectrum (B panel) is caused by the presence of Fl^2- and Fl^1-. The labeled probes and protein concentrations were 1 μM and 10 μM, respectively. (DOCX) Click here for additional data file.
# Supplementary file pone.0204194.s002.docx: S2 Fig Fluorescence emission spectra of dye-labeled B7 and respective complexes with AV and SAV. […] The probe and protein concentrations were 20 nM and 1040 nM (AB1 filling model), respectively. (DOCX) Click here for additional data file.
# [7] = SAV complex, mono-ionic fluorescein species
# T2 sequence (P22629 25-183): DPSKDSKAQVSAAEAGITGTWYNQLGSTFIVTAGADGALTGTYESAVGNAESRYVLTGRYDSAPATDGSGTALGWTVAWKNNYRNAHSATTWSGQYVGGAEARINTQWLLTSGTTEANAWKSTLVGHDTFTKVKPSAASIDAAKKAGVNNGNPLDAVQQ
# T1 sequence (P02701 25-152): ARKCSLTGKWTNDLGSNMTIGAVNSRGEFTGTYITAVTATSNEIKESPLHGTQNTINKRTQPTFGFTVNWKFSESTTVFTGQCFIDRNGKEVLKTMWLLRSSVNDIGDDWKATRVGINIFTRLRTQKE
compound,measurement,setting,value
"O=C(O)CCCC[C@@H]1SC[C@@H]2NC(=O)N[C@@H]21 [B7, d-biotin]",ΔH°rxn,avidin (AV) [1]; ref 39,-26.7 kcal/mol and -26.7 36 kcal/mol
same,ΔH°rxn,"avidin (AV) [1]; ref 39, listed as B",-26.7 20 kcal/mol
same,ΔG°rxn,avidin (AV) [1]; ref 76,-20.5 kcal/mol and -20.5 77 kcal/mol
same,ΔH°rxn,avidin (AV) [1]; ref 76,-20.3 ± 0.3 kcal/mol and -20.3 ± 0.377 kcal/mol
same,ΔG°rxn,"avidin (AV) [1]; ref 76, listed as B",-20.5 50 kcal/mol
same,ΔH°rxn,"avidin (AV) [1]; ref 76, listed as B",-20.3 ± 0.3 50 kcal/mol
same,ΔH°rxn,avidin (AV) [1]; ref 77,-22.5 ± 0.1 kcal/mol and -22.5 ± 0.1 78 kcal/mol
same,ΔH°rxn,"avidin (AV) [1]; ref 77, listed as B",-22.5 ± 0.1 52 kcal/mol
same,ΔG°rxn,avidin (AV) [1]; ref 78,-20.8 kcal/mol and -20.8 79 kcal/mol
same,ΔH°rxn,avidin (AV) [1]; ref 78,-23.4 ± 0.3 kcal/mol and -23.4 ± 0.3 79 kcal/mol
same,ΔS°rxn,avidin (AV) [1]; ref 78,-8.9 [78] cal/mol°K and -8.9 79 cal/mol°K
same,ΔG°rxn,"avidin (AV) [1]; ref 78, listed as B",-20.8 51 kcal/mol
same,ΔH°rxn,"avidin (AV) [1]; ref 78, listed as B",-23.4 ± 0.3 51 kcal/mol
same,ΔS°rxn,"avidin (AV) [1]; ref 78, listed as B",-8.9 51 cal/mol°K
same,"ΔG° ^ǂ, Backward",avidin (AV) [2]; AV-B7,24.7 ± 2.0 [18]^e kcal/mol and 24.7 kcal/mol
same,"ΔS° ^ǂ, Backward",avidin (AV) [2]; AV-B7,43.0 ± 2.0 [18]^e cal/mol°K and 43 cal/mol°K
same,"ΔG° ^ǂ, Backward","avidin (AV) [2]; AV-B7, listed as B","24.7 ± 1.0 6,a kcal/mol"
same,"ΔS° ^ǂ, Backward","avidin (AV) [2]; AV-B7, listed as B","43.0 ± 2.0 6,a cal/mol°K"
same,Ea^Backward,avidin (AV) [2]; AV-B7,37.6 ± 2.0 [18] kcal/mol and 37.6 kcal/mol
same,Ea^Backward,"avidin (AV) [2]; AV-B7, listed as B","37.6 ± 1.0 6,a kcal/mol"
same,koff replacement,"avidin (AV) [2]; AV-B7, ref 35",9e-08 s⁻¹
same,kon,"avidin (AV) [2]; Surface Plasmon Resonance, 20°C, pH 7.4 in HEPES buffer",2.0 ± 0.3 × 10^6 M^-1s^-1
same,half-life of the AV-B7 complex,avidin (AV) [2],90 days
same,kon,"avidin (AV) [2]; pH 5 and 25°C, 14C-biotin quenching experiment",7e+07 M⁻¹ s⁻¹
same,"Ea^Backward, averaged value",streptavidin (SAV) [3],29.4 ± 2.6 kcal/mol and 29.4 kcal/mol
same,"ΔG° ^ǂ, Backward, averaged value",streptavidin (SAV) [3],23.6 ± 1.5 kcal/mol and 23.6 kcal/mol
same,"ΔS° ^ǂ, Backward, averaged value",streptavidin (SAV) [3],24.8 ± 4.5 cal/mol°K and 24.8 cal/mol°K
same,"ΔG° ^ǂ, Backward, averaged value",streptavidin (SAV) [3]; listed as B,23.6 ± 1.0 kcal/mol
same,"ΔS° ^ǂ, Backward, averaged value",streptavidin (SAV) [3]; listed as B,24.8 ± 2.5 cal/mol°K
same,"ΔG° ^ǂ, Backward","streptavidin (SAV) [4]; SAV-B7, calculated at 25°C","24.8 ± 0.3 kcal/mol and 24.8 ± 0.3 80,f kcal/mol"
same,"ΔG° ^ǂ, Backward","streptavidin (SAV) [4]; SAV-B7, calculated at 25°C, listed as B","24.8 ± 0.3 53,b kcal/mol"
same,"ΔS° ^ǂ, Backward","streptavidin (SAV) [4]; SAV-B7, calculated from the plotted data",29.9 ± 2.0 cal/mol°K and 29.9 ± 2.0 18 e cal/mol°K
same,"ΔS° ^ǂ, Backward","streptavidin (SAV) [4]; SAV-B7, calculated from the plotted data, listed as B","29.9 ± 2.0 6,a cal/mol°K"
same,"ΔS° ^ǂ, Backward","streptavidin (SAV) [4]; SAV-B7, ref 39, 80, 82","18.8 ± 0.3 cal/mol°K and 18.8 ± 0.3 36,80,81 cal/mol°K"
same,"ΔS° ^ǂ, Backward","streptavidin (SAV) [4]; SAV-B7, ref 39, 80, 82, listed as B","18.8 ± 0.3 20, 53, 55 cal/mol°K"
same,Ea^Backward,"streptavidin (SAV) [4]; SAV-B7, ref 39, 80","30.4 ± 0.2 kcal/mol and 30.4 ± 0.2 36,80 kcal/mol"
same,Ea^Backward,"streptavidin (SAV) [4]; SAV-B7, ref 39, 80, listed as B","30.4 ± 0.2 20, 53 kcal/mol"
same,"ΔG° ^ǂ, Backward","streptavidin (SAV) [4]; SAV-B7, ref 39, 82","24.6 ± 0.3 kcal/mol and 24.6 ± 0.3 36,81 kcal/mol"
same,"ΔG° ^ǂ, Backward","streptavidin (SAV) [4]; SAV-B7, ref 39, 82, listed as B","24.6 ± 0.3 20, 55 kcal/mol"
same,"ΔG° ^ǂ, Backward","streptavidin (SAV) [4]; SAV-B7, ref 47",21.4 ± 2.0 kcal/mol and 21.4 ± 2.0 44 kcal/mol
same,"ΔG° ^ǂ, Backward","streptavidin (SAV) [4]; SAV-B7, ref 47, listed as B",21.4 ± 1.0 6 kcal/mol
same,koff replacement,"streptavidin (SAV) [4]; SAV-B7, ref 68",2.4e-06 s⁻¹
same,Ea^Backward,"streptavidin (SAV) [4]; SAV-B7, ref 81",32.0 kcal/mol and 32 kcal/mol
same,"ΔS° ^ǂ, Backward","streptavidin (SAV) [4]; SAV-B7, ref 81",25.8 cal/mol°K and 25.8 82 cal/mol°K
same,Ea^Backward,"streptavidin (SAV) [4]; SAV-B7, ref 81, listed as B",32.0 56 kcal/mol
same,"ΔS° ^ǂ, Backward","streptavidin (SAV) [4]; SAV-B7, ref 81, listed as B",25.8 56 cal/mol°K
same,Ea^Backward,"streptavidin (SAV) [4]; SAV-B7, ref 82",25.8 ± 1.2 kcal/mol and 25.8 ± 1.2 81 kcal/mol
same,Ea^Backward,"streptavidin (SAV) [4]; SAV-B7, ref 82, listed as B",25.8 ± 1.2 55 kcal/mol
same,kon,"streptavidin (SAV) [4]; SPR, immobilized B7, 4°C",5.1e+06 M⁻¹ s⁻¹
same,kon,"streptavidin (SAV) [4]; stopped-flow, tryptophan fluorescence quenching, 25°C and pH 7",7.5 ± 0.6 × 10^7 M^-1s^-1
same,"ΔG°rxn, averaged value",avidin (AV) [5],-20.7 ± 0.3 kcal/mol
same,"ΔH°rxn, averaged value",avidin (AV) [5],-23.2 ± 1.7^d kcal/mol and -23.2 ± 1.7 d kcal/mol
same,"ΔG°rxn, averaged value",avidin (AV) [5]; listed as B,-20.7 ± 1.0 kcal/mol
same,"ΔH°rxn, averaged value",avidin (AV) [5]; listed as B,-23.2 ± 1.0 kcal/mol
"O=C(CCCC[C@@H]1SC[C@@H]2NC(=O)N[C@@H]21)NCCNC(=O)c1ccc(-c2c3ccc(=O)cc-3oc3cc(O)ccc23)c(C(=O)O)c1 [BFl, Biotin-4-fluorescein]",Maximum Absorbance,"streptavidin (SAV) [6]; SAV complex, di-ionic fluorescein species",494 nm
same,Maximum Absorbance,streptavidin (SAV) [6]; [7],472 nm
same,Maximum Emission,streptavidin (SAV) [6]; [7],515 nm
same,Emission (nm),streptavidin (SAV) [6]; complex with SAV,524 nm

# — PMC6394990, “Detailed characterization of the solution kinetics and thermodynamics of biotin, biocytin and HABA binding to avidin and streptavidin” (PLoS ONE, 2019)
